Test results published in patent publication US20150359220A1, “COMPOSITIONS COMPRISING GOUGEROTIN AND A FUNGICIDE” (BAYER CROPSCIENCE LP, priority 2013, published 2015).
Counter-ions that a name gives are not always drawn. Like-named read-outs stand apart in the source and are kept apart here.

What was measured:
Alternaria solani = assay: Alternaria test (tomatoes)/preventive; assay type: in vivo; conditions: 3 days after inoculation
[1] = system: Blumeria graminis fsp. hordei; assay: Blumeria test (barley)/preventive; assay type: in vivo; conditions: 7 days after inoculation
Phytophthora infestans = assay: whole plant or invertebrate; assay type: in vivo; conditions: for Efficacy in % found: 3 days after inoculation
Puccinia triticina = assay: Puccinia triticina-test (wheat)/preventive; assay type: in vivo; conditions: 8 days after inoculation
Sphaerotheca fuliginea = assay: Sphaerotheca test (cucumbers)/preventive; assay type: in vivo
Venturia inaequalis = assay: Venturia test (apples)/preventive; conditions: for Efficacy in % found: 10 days after inoculation
Experimental: After the spray coating has dried on, the plants are inoculated with an aqueous conidia suspension of the causal agent of apple scab (Venturia inaequalis) and then remain for 1 day in an incubation cabinet at approximately 20° C. and a relative atmospheric humidity of 100%. The plants are then placed in a greenhouse at approximately 21° C. and a relative atmospheric humidity of approximately 90%.
The test is evaluated 10 days after the inoculation.

Botrytis cinerea = assay: Botrytis test (beans)/preventive; conditions: Table 7, size of lesions 2 days after inoculation
Experimental: After the spray coating has dried on, 2 small pieces of agar covered with growth of Botrytis cinerea are placed on each leaf. The inoculated plants are placed in a darkened chamber at 20° C. and a relative atmospheric humidity of 100%.
2 days after the inoculation, the size of the lesions on the leaves is evaluated.

Septoria tritici = assay: Septoria tritici-test (wheat)/preventive; assay type: in vivo; conditions: 21 days after inoculation
Pyrenophora teres = assay: Pyrenophora teres-test (barley)/preventive; assay type: in vivo; conditions: 8 days after inoculation
[2] = system: gram-positive, gram-negative bacteria and tubercule bacillus; conditions: according to U.S. Pat. No. 3,849,398; cited from earlier work
[3] = system: parasites on animals, such as pin worm; conditions: according to U.S. Pat. No. 3,849,398; cited from earlier work
[4] = Alternaria solani, topical, 72 h, Table 2, 2 ppm a.i., read-out: Efficacy in % found
[5] = Phytophthora infestans, topical, 72 h, read-out: Efficacy in % found
[6] = Podosphaera fuliginea, 168 h, Table 19, 1 ppm a.i., 7 days after inoculation, read-out: Efficacy in % found
[7] = Venturia inaequalis, 240 h, read-out: Efficacy in % found
[8] = Alternaria solani, topical, 72 h, Table 4, 50 ppm a.i., read-out: Efficacy in % found
[9] = Podosphaera fuliginea, 168 h, Table 20, 100 ppm a.i., 7 days after inoculation, read-out: Efficacy in % found
[10] = Table 18, 0.5 ppm a.i., 7 days after inoculation
[11] = Table 18, 100 ppm a.i., 7 days after inoculation
[12] = Table 19, 20 ppm a.i., 7 days after inoculation

CC1COC(Cn2cncn2)(c2ccc(Oc3ccc(Cl)cc3)cc2Cl)O1 (stereo not shown) [F7, difenoconazole]
pest or weed control at 2 ppm (Alternaria solani; [4]): 30% | Efficacy in % found ([1]; Table 6, 62.5 ppm a.i.): 44% | Efficacy in % found ([1]; Table 6, 125 ppm a.i.): 67% | pest or weed control at 100 ppm (Phytophthora infestans; [5]): 0% | Efficacy in % found (Puccinia triticina; Table 13, 31.25 ppm a.i.): 30% | Efficacy in % found (Puccinia triticina; Table 13, 62.5 ppm a.i.): 60% | pest or weed control at 1 ppm (Sphaerotheca fuliginea; [6]): 0% | pest or weed control at 1 ppm (Venturia inaequalis; [7]): 38%

CC1(C(=O)Nc2ccc(O)c(Cl)c2Cl)CCCCC1 [F16, fenhexamid]
pest or weed control at 50 ppm (Alternaria solani; [8]): 50% | pest or weed control at 100 ppm (Phytophthora infestans; [5]): 0% | pest or weed control at 100 ppm (Sphaerotheca fuliginea; [9]): 0% | pest or weed control at 25 ppm (Venturia inaequalis; [7]): 0%

OC(Cc1ccccc1Cl)(Cn1nc[nH]c1=S)C1(Cl)CC1 (stereo not shown) [F41, prothioconazole]
pest or weed control at 2 ppm (Alternaria solani; [4]): 0% | pest or weed control at 100 ppm (Phytophthora infestans; [5]): 45% | pest or weed control at 1 ppm (Sphaerotheca fuliginea; [6]): 43% | pest or weed control at 1 ppm (Venturia inaequalis; [7]): 0%

CCCN(CC)CC1COC2(CCC(C(C)(C)C)CC2)O1 (stereo not shown) [F46, spiroxamine]
pest or weed control at 50 ppm (Alternaria solani; [8]): 46% | Efficacy in % found ([1]; Table 6, 125 ppm a.i.): 11% | pest or weed control at 100 ppm (Sphaerotheca fuliginea; [9]): 30% | Efficacy in % found (Botrytis cinerea; 100 ppm a.i.): 14% | pest or weed control at 50 ppm (Venturia inaequalis; [7]): 0%

CC(C)(C)C(O)(CCc1ccc(Cl)cc1)Cn1cncn1 (stereo not shown) [F47, tebuconazole]
pest or weed control at 2 ppm (Alternaria solani; [4]): 35% | Efficacy in % found ([1]; Table 6, 31.25 ppm a.i.): 78% | pest or weed control at 100 ppm (Phytophthora infestans; [5]): 15% | Efficacy in % found (Puccinia triticina; Table 13, 31.25 ppm a.i.): 30% | Efficacy in % found (Puccinia triticina; Table 13, 62.5 ppm a.i.): 60% | Efficacy in % found (Septoria tritici; Table 17, 125 ppm a.i.): 57% | pest or weed control at 1 ppm (Venturia inaequalis; [7]): 0%

O=C(NCCc1ncc(C(F)(F)F)cc1Cl)c1ccccc1C(F)(F)F [F70, fluopyram]
Efficacy in % found (Alternaria solani; Table 2, 2 ppm a.i.): 40% | Efficacy in % found ([1]; Table 5, 31.25 ppm a.i.): 0% | Efficacy in % found ([1]; Table 5, 62.5 ppm a.i.): 0% | Efficacy in % found (Pyrenophora teres; Table 15, 31.25 ppm a.i.): 60% | Efficacy in % found (Pyrenophora teres; Table 15, 62.5 ppm a.i.): 80% | Efficacy in % found (Septoria tritici; Table 16, 62.5 ppm a.i.): 0% | Efficacy in % found (Sphaerotheca fuliginea; Table 19, 1 ppm a.i., 7 days after inoculation): 0% | Efficacy in % found (Venturia inaequalis; Table 21, 1 ppm a.i.): 0%

CC(C)Oc1cccc(NC(=O)c2ccccc2C(F)(F)F)c1 [F71, flutolanil]
pest or weed control at 100 ppm (Sphaerotheca fuliginea; [9]): 20% | Efficacy in % found (Botrytis cinerea; 250 ppm a.i.): 30% | pest or weed control at 50 ppm (Venturia inaequalis; [7]): 0%

Cn1cc(C(=O)Nc2ccccc2-c2cc(F)c(F)c(F)c2)c(C(F)F)n1 [F72, fluxapyroxad]
Efficacy in % found (Alternaria solani; Table 2, 0.5 ppm a.i.): 45% | Efficacy in % found ([1]; Table 5, 31.25 ppm a.i.): 0% | Efficacy in % found (Phytophthora infestans; Table 9, 100 ppm a.i.): 0% | Efficacy in % found (Puccinia triticina; Table 12, 15.625 ppm a.i.): 22% | Efficacy in % found (Puccinia triticina; Table 12, 31.25 ppm a.i.): 22% | Efficacy in % found (Pyrenophora teres; Table 15, 15.625 ppm a.i.): 80% | Efficacy in % found (Pyrenophora teres; Table 15, 31.25 ppm a.i.): 90% | Efficacy in % found (Septoria tritici; Table 16, 31.25 ppm a.i.): 13% | Efficacy in % found (Venturia inaequalis; Table 21, 0.25 ppm a.i.): 0%

Cc1nn(C)c(F)c1C(=O)Nc1ccccc1C(C)CC(C)C (stereo not shown) [F84, penflufen]
Efficacy in % found (Phytophthora infestans; Table 9, 100 ppm a.i.): 8% | Efficacy in % found (Puccinia triticina; Table 12, 31.25 ppm a.i.): 67% | Efficacy in % found (Pyrenophora teres; Table 15, 62.5 ppm a.i.): 70% | Efficacy in % found (Pyrenophora teres; Table 15, 125 ppm a.i.): 60% | Efficacy in % found (Sphaerotheca fuliginea; Table 19, 0.5 ppm a.i., 7 days after inoculation): 0% | Efficacy in % found (Venturia inaequalis; Table 21, 0.5 ppm a.i.): 0%

CO/C=C(/C(=O)OC)c1ccccc1Oc1cc(Oc2ccccc2C#N)ncn1 [F107, azoxystrobin]
Efficacy in % found (Alternaria solani; Table 3, 2 ppm a.i.): 41% | Efficacy in % found ([1]; Table 5, 31.25 ppm a.i.): 10% | Efficacy in % found (Puccinia triticina; Table 12, 7.8125 ppm a.i.): 67% | Efficacy in % found (Pyrenophora teres; Table 15, 15.625 ppm a.i.): 60% | Efficacy in % found (Pyrenophora teres; Table 15, 31.25 ppm a.i.): 90% | Efficacy in % found (Septoria tritici; Table 16, 15.625 ppm a.i.): 13% | Efficacy in % found (Septoria tritici; Table 16, 31.25 ppm a.i.): 50% | Efficacy in % found (Sphaerotheca fuliginea; [10]): 37% | Efficacy in % found (Venturia inaequalis; Table 22, 0.5 ppm a.i.): 84%

CSC1=N[C@@](C)(c2ccccc2)C(=O)N1Nc1ccccc1 [F114, fenamidone]
pest or weed control at 50 ppm (Alternaria solani; Alternaria solani, topical, 72 h, Table 3, 50 ppm a.i., read-out: Efficacy in % found): 62% | pest or weed control at 1 ppm (Phytophthora infestans; [5]): 41% | pest or weed control at 100 ppm (Sphaerotheca fuliginea; Podosphaera fuliginea, 168 h, Table 18, 100 ppm a.i., 7 days after inoculation, read-out: Efficacy in % found): 21% | pest or weed control at 50 ppm (Venturia inaequalis; [7]): 0%

COC(=O)N(OC)c1ccccc1COc1ccn(-c2ccc(Cl)cc2)n1 [F121, pyraclostrobin]
Efficacy in % found (Alternaria solani; Table 3, 2 ppm a.i.): 41% | Efficacy in % found (Pyrenophora teres; Table 15, 31.25 ppm a.i.): 80% | Efficacy in % found (Septoria tritici; Table 16, 31.25 ppm a.i.): 75% | Efficacy in % found (Sphaerotheca fuliginea; [10]): 0% | Efficacy in % found (Venturia inaequalis; Table 22, 0.5 ppm a.i.): 0%

CON=C(C(=O)OC)c1ccccc1CON=C(C)c1cccc(C(F)(F)F)c1 [F126, trifloxystrobin]
Efficacy in % found (Alternaria solani; Table 3, 2 ppm a.i.): 47% | Efficacy in % found ([1]; Table 5, 15.625 ppm a.i.): 50% | Efficacy in % found ([1]; Table 5, 31.25 ppm a.i.): 60% | Efficacy in % found (Septoria tritici; Table 16, 15.625 ppm a.i.): 50% | Efficacy in % found (Septoria tritici; Table 16, 31.25 ppm a.i.): 75% | Efficacy in % found (Sphaerotheca fuliginea; [10]): 0% | Efficacy in % found (Venturia inaequalis; Table 22, 0.5 ppm a.i.): 53%

O=C(NCc1ncc(C(F)(F)F)cc1Cl)c1c(Cl)cccc1Cl [F143, fluopicolide]
Efficacy in % found (Phytophthora infestans; Table 10, 5 ppm a.i.): 21% | Efficacy in % found (Venturia inaequalis; Table 22, 50 ppm a.i.): 0%

N#Cc1c(Cl)c(Cl)c(Cl)c(C#N)c1Cl [F155, chlorothalonil]
pest or weed control at 20 ppm (Phytophthora infestans; [5]): 0% | Efficacy in % found (Pyrenophora teres; Table 14, 250 ppm a.i.): 50% | Efficacy in % found (Septoria tritici; Table 17, 125 ppm a.i.): 57% | pest or weed control at 10 ppm (Venturia inaequalis; [7]): 4%

N#Cc1ccccc1NC(=O)c1snc(Cl)c1Cl [F187, isotianil]
Efficacy in % found (Alternaria solani; Table 4, 50 ppm a.i.): 18% | Efficacy in % found (Septoria tritici; Table 17, 250 ppm a.i.): 29% | Efficacy in % found (Septoria tritici; Table 17, 500 ppm a.i.): 29% | Efficacy in % found (Sphaerotheca fuliginea; Table 20, 100 ppm a.i., 7 days after inoculation): 20% | Efficacy in % found (Botrytis cinerea; 125 ppm a.i.): 40% | Efficacy in % found (Venturia inaequalis; Table 21, 50 ppm a.i.): 0%

C#CCOc1ccc(CCNC(=O)C(OCC#C)c2ccc(Cl)cc2)cc1OC (stereo not shown) [F206, mandipropamid]
Efficacy in % found (Phytophthora infestans; Table 10, 0.25 ppm a.i.): 47% | Efficacy in % found (Sphaerotheca fuliginea; [11]): 13%

CCCOC(=O)NCCCN(C)C [F220, propamocarb hydrochloride]
pest or weed control at 250 ppm (Alternaria solani; Alternaria solani, topical, 72 h, Table 4, 250 ppm a.i., read-out: Efficacy in % found): 12% | pest or weed control at 500 ppm (Phytophthora infestans; [5]): 7% | pest or weed control at 500 ppm (Sphaerotheca fuliginea; Podosphaera fuliginea, 168 h, Table 20, 500 ppm a.i., 7 days after inoculation, read-out: Efficacy in % found): 10% | pest or weed control at 250 ppm (Venturia inaequalis; [7]): 0%

COCC(=O)N(c1c(C)cccc1C)C(C)C(=O)OC (stereo not shown) [F241, metalaxyl]
Efficacy in % found (Venturia inaequalis; Table 22, 50 ppm a.i.): 0%

COCC(=O)N(c1c(C)cccc1C)[C@H](C)C(=O)OC [F242, metalaxyl-M]
Efficacy in % found (Sphaerotheca fuliginea; [11]): 13% | Efficacy in % found (Venturia inaequalis; Table 22, 50 ppm a.i.): 0%

N#Cc1c[nH]cc1-c1cccc2c1OC(F)(F)O2 [F248, fludioxonil]
pest or weed control at 100 ppm (Sphaerotheca fuliginea; Podosphaera fuliginea, 168 h, read-out: Efficacy in % found): 30% | Efficacy in % found (Botrytis cinerea; 2.5 ppm a.i.): 26% | pest or weed control at 50 ppm (Venturia inaequalis; [7]): 0%

Cn1c(=O)c2sc3c(=O)n(C)c(=O)c3sc2c1=O [F319, 2,6-dimethyl-1H,5H-[1,4]dithiino[2,3-c:5,6-c′]dipyrrole-1,3,5,7(2H,6H)-tetrone]
Efficacy in % found (Alternaria solani; Table 2, 50 ppm a.i.): 5% | Efficacy in % found (Phytophthora infestans; Table 11, 50 ppm a.i.): 5% | Efficacy in % found (Sphaerotheca fuliginea; Table 19, 50 ppm a.i., 7 days after inoculation): 0% | Efficacy in % found (Venturia inaequalis; Table 23, 25 ppm a.i.): 38%

CNCC(=O)NC(CO)C(=O)NC1C(C(N)=O)OC(n2ccc(N)nc2=O)C(O)C1O [gougerotin, 1-(4-Amino-2-oxo-1(2H)-pyrimidinyl)-1,4-dideoxy-4-[[N—(N-methylglycyl)-D-seryl]amino]-b-D-glucopyranuronamide]
antibacterial activity [2]: weak antibacterial activity | parasiticidal action [3]: parasiticidal action

fosetyl-aluminium [F281]
Efficacy in % found (Alternaria solani; Table 3, 50 ppm a.i.): 15% | Efficacy in % found (Phytophthora infestans; Table 10, 50 ppm a.i.): 55% | Efficacy in % found (Sphaerotheca fuliginea; [11]): 13% | Efficacy in % found (Venturia inaequalis; Table 22, 50 ppm a.i.): 0%

mancozeb [F174]
Efficacy in % found (Phytophthora infestans; Table 11, 20 ppm a.i.): 0% | Efficacy in % found (Sphaerotheca fuliginea; [12]): 0% | Efficacy in % found (Venturia inaequalis; Table 23, 10 ppm a.i.): 0%

phosphorous acid and its salts [F298]
Efficacy in % found (Phytophthora infestans; Table 10, 500 ppm a.i.): 76% | Efficacy in % found (Venturia inaequalis; Table 22, 50 ppm a.i.): 0%

propineb [F180]
Efficacy in % found (Phytophthora infestans; Table 11, 20 ppm a.i.): 8% | Efficacy in % found (Sphaerotheca fuliginea; [12]): 0% | Efficacy in % found (Venturia inaequalis; Table 23, 10 ppm a.i.): 81%
